The values that follow are results of earlier work, collected in patent US20220079896A1, “DELAYED RELEASE COMPOSITIONS” (AMNEAL COMPLEX PRODUCTS RESEARCH LLC, priority 2020, published 2022).

`NC(=O)C[S@@+]([O-])C(c1ccccc1)c1ccccc1` [Armodafinil, (−)-2-[(R)-(diphenylmethyl)sulfinyl] acetamide]: the “mean single-dose terminal elimination half-life” value was “approximately 13 hours”.

Take `NC(=O)C[S+]([O-])C(c1ccccc1)c1ccccc1` (centres unmarked) [modafinil]: the “mean single-dose terminal elimination half-life” value is “approximately 13 hours”.
